Test: Bioavailability in a mouse model (blood level after oral gavage)
Format: in vivo
Conditions: whole blood, 100 mg/kg oral gavage in olive oil, blood sample 6 h after gavage, quantified by HPLC
Procedure: Bioavailability is an important characteristic of many therapeutic agents. Accordingly, certain compounds disclosed herein were tested for bioavailability in a mouse model.
The test compound was prepared on the day of dose administration by dissolving the appropriate amount of test article in olive oil to reach the proper concentrations.
The dose of 100 mg/kg body weight (total volume of administration was <120 μL) was used for testing. For example, a mouse whose body weight is 20 g would need 2 mg of test article in oral gavage. Mice were food deprived overnight. On the experimental day, mice were weighed to obtain dosage information before oral gavage was performed. Blood and brain samples were collected at the desired post-dose time points after oral gavage. Brain samples were perfused to exclude blood as a factor in the analysis of bioavailability.

SMILES	concentration at 6 h
CCCCCCCCCCCCCCCCc1nc(N2CCC2)nc(OC2CCC2)c1O [Compound 12, 2-(Azetidin-1-yl)-4-cyclobutanoxy-6-hexadecylpyrimidin-5-ol]	~4 µM

Test: not given
Conditions: not given

SMILES	melting point
CCCCCCCCCCCCCCCCc1nc(N2CCCC2)nc(OC2CCC2)c1O [Compound 14, 4-Cyclobutoxy-2-(pyrrolidin-1-yl)-6-hexadecylpyrimidin-5-ol]	74 to 76 °C
CCCCCCCCCCCCCCCOc1nc(N2CCC2)nc(C)c1O [Compound 11, 2-(Azetidin-1-yl)-4-methyl-6-(pentadecyloxy)pyrimidin-5-ol]	83 to 85 °C
[2H]C(CCCCCCCCCCCCCCC)c1nc(N(C([2H])([2H])[2H])C([2H])([2H])[2H])nc(OC([2H])([2H])[2H])c1O (stereo not drawn) [Compound 2, 2-(N,N-dimethylamino-d6)-4-(1-hexadecyl-d1)-6-(methoxy-d3)-pyrimidin-5-ol]	75 to 76 °C
[2H]C([2H])([2H])N(c1nc(CCCCCCCCCCCCCCCC)c(O)c(OC2CCC2)n1)C([2H])([2H])[2H] [Compound 13, 4-Cyclobutoxy-2-(N,N-dimethylamino)-6-hexadecylpyrimidin-5-ol-d6]	72 to 73 °C
CCCCCCCCCCCCCCCCc1nc(N2CCCCC2)nc(OC2CCC2)c1O [Compound 15, 4-Cyclobutoxy-2-(piperidin-1-yl)-6-hexadecylpyrimidin-5-ol]	78 to 79 °C
CCCCCCCCCCCCCCCCc1nc(N2CCC2)nc(OCC)c1O [Compound 9, 2-(Azetidin-1-yl)-4-ethoxy-6-hexadecylpyrimidin-5-ol]	79 to 80 °C
CCCCCCCCCCCCCCCCc1nc(N2CCC2)nc(OC)c1O [Compound 8, 2-(Azetidin-1-yl)-4-methoxy-6-hexadecylpyrimidin-5-ol]	59 to 60 °C

Test: not given
Conditions: calculated value, James et al. (2005) J Biol. Chem. 280, 21295; cited from earlier work

SMILES	calculated octanol-water partition coefficient
COC1=C(OC)C(=O)C(C/C=C(\C)CC/C=C(\C)CC/C=C(\C)CC/C=C(\C)CC/C=C(\C)CC/C=C(\C)CC/C=C(\C)CC/C=C(\C)CC/C=C(\C)CCC=C(C)C)=C(C)C1=O [coenzyme Q10]	> 10^20
